Data reported in patent US20260356869A1, “TRANSITION METAL COMPLEXES FOR MRI APPLICATIONS AND METHODS OF USE” (Yale University, priority 2022, published 2026).
Like-named read-outs stand apart in the source and are kept apart here.

How the values were obtained:
[1] = 23Na-NMR sodium sensing (shiftability and broadening); format: physicochemical; details: 150 mM NaCl; for Shiftability (Sc): negative = downfield, positive = upfield from unshifted sodium signal
Description: (§1) The synthesized complexes are characterized for water proton relaxivities with different concentrations of complexes, as well as their proton sensing (with BIRDS and CEST) and sodium sensing (with ^23Na-MRSI) properties on a Bruker AVANCE III HD 500 vertical-bore spectrometer (Bruker, Billerica, MA, USA) interfaced with Bruker TopSpin v3.2 software.
Sodium-23 (^23Na), which has 100% natural abundance, is also visible by magnetic resonance (I=3/2) and provides the second-strongest signal among biological ions after proton. […] Sodium (Na^+) concentration is normally low intracellularly (~10 mM) and high in blood and extracellular spaces (~150 mM), producing a strong transmembrane Nat gradient (ΔNa^+mem≈140 mM) and a weak transendothelial Na^+ gradient (ΔNa^+end≈0 mM). Distributions of sodium ion (Na^+) across biological membranes are tightly regulated, and thus variations of Nat across compartments often imply pathological states.
In vitro experiments are performed using concentric NMR tubes (spherical and cylindrical; Wilmad-LabGlass, Vineland, NJ, USA). One compartment (inner) contained 150 mM NaCl and the other (outer) contained the same but with varying amounts of transition metal complexes and 10% v/v ^2H2O to lock the spectrometer frequency using the ^2H2O signal. Each solution is pH-adjusted using HCl or KOH to give five different pH values. ^23Na-NMR spectra are collected on the same Bruker system as for ^1H NMR. […] Spectra are analyzed applying 10 Hz line broadening and manual zeroth- and first-order phasing. The chemical shift and line width of the shifted peak are measured using the “peakw” function on TopSpin.

[2] = BIRDS characterization: pH and temperature sensitivity of non-exchangeable (and -NH) proton chemical shifts by 1H NMR; format: physicochemical; details: for T sensitivity, -NH proton: -NH proton (exchangeable), 298 K to 318 K
Method: as §1
The chemical shifts of proton resonances are measured relative to the water resonance (4.7 ppm). Temperature and pH sensitive non-exchangeable proton resonances in each complex are chosen for BIRDS detection. The temperature and pH dependences of proton chemical shifts are fitted to second-order polynomial equations:
δ=a+b pH+cT+dpH^2+eT^2+f pHT Eq. 1
Where, the coefficients a-f are obtained from the fit. The relaxation times (T1 and T2) of these resonances are measured at 35 °C using typical inversion-recovery and spin-echo methods, respectively.

[3] = reported value, cited from earlier work; for Shiftability (Sc): negative = downfield, positive = upfield from unshifted sodium signal
[4] = literature value, cited from earlier work
[5] = 10 mM, pH 6.2-8.0, 298 K to 318 K, 11.7 T
[6] = proton B, 10 mM, pH 6.2-8.0, 298 K to 318 K, 11.7 T
[7] = proton A (@56), comparator thulium complex
[8] = proton B (@23), comparator thulium complex
[9] = proton C (@-20), comparator thulium complex

## O=P(O)(O)CN1CCN(CP(=O)(O)O)CCN(CP(=O)(O)O)CCN(CP(=O)(O)O)CC1.[Co+2] [CODOTP^6-]
[1]
  Broadening (βc): 0.016 ppm/mM
  Shiftability (Sc): -0.207 ppm/mM
[2]; [5]
  T sensitivity, non-exchangeable proton A: 0.434 ppm/° C.
  pH sensitivity, non-exchangeable proton A: 6.0 ppm/pH unit
  T sensitivity, non-exchangeable proton C: 0.186 ppm/° C.
[2]; [6]
  T sensitivity, non-exchangeable proton B: 0.234 ppm/° C.
  pH sensitivity, non-exchangeable proton B: 1.42 ppm/pH unit

## O=P(O)(O)CN1CCN(CP(=O)(O)O)CCN(CP(=O)(O)O)CC1.[Co+2] [CONOTP^4-]
[1]
  Broadening (βc): 0.013 ppm/mM
  Shiftability (Sc): +0.140 ppm/mM
[2]; [5]
  T sensitivity, non-exchangeable proton A: 0.948 ppm/° C.
  pH sensitivity, non-exchangeable proton A: 6.20 ppm/pH unit

## O=C(CN1CCN(CC(=O)NCP(=O)(O)O)CCN(CC(=O)NCP(=O)(O)O)CCN(CC(=O)NCP(=O)(O)O)CC1)NCP(=O)(O)O.[Co+2] [CoDOTA-4AMP^6-]
[1]
  Broadening (βc): 0.022 ppm/mM
  Shiftability (Sc): -0.172 ppm/mM
[2]; 11.7 T
  T sensitivity, -NH proton: 0.161 ppm/° C.
[2]; [5]
  T sensitivity, non-exchangeable proton A: 0.576 ppm/° C.

## O=C(CN1CCN(CC(=O)NCP(=O)(O)O)CCN(CC(=O)NCP(=O)(O)O)CCN(CC(=O)NCP(=O)(O)O)CC1)NCP(=O)(O)O.[Fe+2] [FeDOTA-4AMP^6-]
[1]
  Broadening (βc): 0.020 ppm/mM
  Shiftability (Sc): -0.477 ppm/mM
[2]; 11.7 T
  T sensitivity, -NH proton: 0.158 ppm/° C.
[2]; [5]
  T sensitivity, non-exchangeable proton A: 0.413 ppm/° C.
[2]; proton E, 10 mM, pH 6.2-8.0, 298 K to 318 K, 11.7 T
  T sensitivity, non-exchangeable proton E: -0.306 ppm/° C.

## O=P(O)(O)CN1CCN(CP(=O)(O)O)CCN(CP(=O)(O)O)CCN(CP(=O)(O)O)CC1.[Fe+2] [FeDOTP^6-]
[1]
  Broadening (βc): 0.023 ppm/mM
  Shiftability (Sc): +0.688 ppm/mM
[2]; [5]
  T sensitivity, non-exchangeable proton A: 0.345 ppm/° C.
  T sensitivity, non-exchangeable proton C: 0.045 ppm/° C.
[2]; [6]
  T sensitivity, non-exchangeable proton B: 0.130 ppm/° C.

## O=P(O)(O)CN1CCN(CP(=O)(O)O)CCN(CP(=O)(O)O)CC1.[Fe+2] [FeNOTP^4-]
[1]
  Broadening (βc): 0.015 ppm/mM
  Shiftability (Sc): +0.318 ppm/mM
[2]; [5]
  T sensitivity, non-exchangeable proton A: 0.240 ppm/° C.
[2]; [6]
  T sensitivity, non-exchangeable proton B: 0.149 ppm/° C.

## O=P(O)(O)CN1CCN(CP(=O)(O)O)CCN(CP(=O)(O)O)CCN(CP(=O)(O)O)CC1.[Gd+3] [GdDOTP^5-]
[3]
  Broadening (βc): 0.036 ppm/mM
  Shiftability (Sc): -0.040 ppm/mM

## O=P(O)(O)CN1CCN(CP(=O)(O)O)CCN(CP(=O)(O)O)CC1.[Gd+3] [GdNOTP^3-]
[3]
  Broadening (βc): 0.0117 ppm/mM
  Shiftability (Sc): -0.0435 ppm/mM

## O=C(CN1CCN(CC(=O)NCP(=O)(O)O)CCN(CC(=O)NCP(=O)(O)O)CCN(CC(=O)NCP(=O)(O)O)CC1)NCP(=O)(O)O.[Tm+3] [TmDOTA-4AMP^5-]
[4]; proton H1
  T sensitivity, non-exchangeable proton H1: 0.54 ppm/° C.
  pH sensitivity, non-exchangeable proton H1: 1.8 ppm/pH unit
[4]
  T sensitivity, non-exchangeable proton H2: -0.24 ppm/° C.
  pH sensitivity, non-exchangeable proton H2: -0.63 ppm/pH unit
  T sensitivity, non-exchangeable proton H3: -0.188 ppm/° C.
  pH sensitivity, non-exchangeable proton H3: -0.25 ppm/pH unit
  T sensitivity, non-exchangeable proton H6: 0.45 ppm/° C.
  pH sensitivity, non-exchangeable proton H6: 1.2 ppm/pH unit
[4]; proton H4
  T sensitivity, non-exchangeable proton H4: -1.49 ppm/° C.
  pH sensitivity, non-exchangeable proton H4: -3.9 ppm/pH unit
[4]; proton H8
  T sensitivity, non-exchangeable proton H8: 0.170 ppm/° C.
  pH sensitivity, non-exchangeable proton H8: -4.0 ppm/pH unit

## O=P(O)(O)CN1CCN(CP(=O)(O)O)CCN(CP(=O)(O)O)CCN(CP(=O)(O)O)CC1.[Tm+3] [TmDOTP^5-]
[4]
  T sensitivity, non-exchangeable proton H2: -0.6 ppm/° C.
  pH sensitivity, non-exchangeable proton H2: 4.2 ppm/pH unit
  T sensitivity, non-exchangeable proton H3: -0.5 ppm/° C.
  pH sensitivity, non-exchangeable proton H3: 3.6 ppm/pH unit
  T sensitivity, non-exchangeable proton H6: 1.1 ppm/° C.
  pH sensitivity, non-exchangeable proton H6: -3.9 ppm/pH unit
[3]
  Broadening (βc): 0.042 ppm/mM
  Shiftability (Sc): -2.03 ppm/mM

## O=P(O)(O)CN1CCN(CP(=O)(O)O)CCN(CP(=O)(O)O)CC1.[Tm+3] [TmNOTP^3-]
[2]; [7]
  T sensitivity, non-exchangeable proton A (@56): 0.351 ppm/° C.
  pH sensitivity, non-exchangeable proton A (@56): -2.58 ppm/pH unit
[2]; [8]
  T sensitivity, non-exchangeable proton B (@23): 0.140 ppm/° C.
  pH sensitivity, non-exchangeable proton B (@23): -0.56 ppm/pH unit
[2]; [9]
  T sensitivity, non-exchangeable proton C (@-20): -0.250 ppm/° C.
  pH sensitivity, non-exchangeable proton C (@-20): 1.88 ppm/pH unit
[3]
  Broadening (βc): 0.018 ppm/mM
  Shiftability (Sc): -0.568 ppm/mM
